This note sets out measurements from patent US20170037028A1 (BAYER PHARMA AKTIENGESELLSCHAFT, priority 2013, published 2017).

The target in the first assay is T1, GLUT1 (Homo sapiens, UniProt P11166).
T1 sequence (P11166 1-492): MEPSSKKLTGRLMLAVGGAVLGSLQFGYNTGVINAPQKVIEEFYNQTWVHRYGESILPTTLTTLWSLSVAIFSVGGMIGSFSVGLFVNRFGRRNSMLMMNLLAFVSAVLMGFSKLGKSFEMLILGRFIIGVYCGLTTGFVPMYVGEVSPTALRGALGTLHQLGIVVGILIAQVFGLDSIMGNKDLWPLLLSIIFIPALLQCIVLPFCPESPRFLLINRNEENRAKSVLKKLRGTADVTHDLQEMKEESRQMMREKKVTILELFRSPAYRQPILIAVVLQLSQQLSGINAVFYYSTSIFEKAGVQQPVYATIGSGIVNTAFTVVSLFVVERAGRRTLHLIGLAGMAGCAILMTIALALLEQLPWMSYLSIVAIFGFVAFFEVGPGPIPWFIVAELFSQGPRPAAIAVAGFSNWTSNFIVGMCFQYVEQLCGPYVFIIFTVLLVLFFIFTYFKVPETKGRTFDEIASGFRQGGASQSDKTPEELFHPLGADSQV
Briefly: Indirect measurement of GLUT1 activity by quantification of intracellular ATP levels (glucose induced ATP increase). In kind it is cell-based. More on the design: endogenous in cells; host or cells: DLD1 or CHO-K1. The note with it: DLD1 cells; 0.1 mM glucose, 1 μM Rotenone, 15 min; CellTiter-Glo ATP readout; IC50 values standardized to cytochalasin B IC50 values; read-out: IC50 regarding glucose induced ATP increase (GLUT1 inhibition). The essentials: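 DLD1 or CHO-K1 cells were starved overnight in glucose-free medium with 1% FCS, then combined with an oxidative phosphorylation inhibitor. GLUT1 activity was read as glucose-induced ATP increase, GLUT2 as fructose-induced. Intracellular ATP was quantified by CellTiter-Glo luminescence.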
On the technique in general: In ATP-based viability assays light output follows the ATP content of the culture.
In general, IC50 refers to the concentration that gives 50% inhibition. Take `Cc1c(NC(=O)c2cc(C(N)=O)nc3cc(F)ccc23)c(C(F)(F)F)nn1Cc1cc(C#N)no1` [Example 1669]: the IC50 is 88.8 nM.

Still in this assay, the particulars now being: read-out: IC50 regarding glucose induced ATP increase (GLUT1 inhibition).
As for `Cc1nn(Cc2ccc(C#N)cc2)c(C)c1NC(=O)c1cc(C(F)(F)F)nc2cc(F)c(F)cc12` [Example 169, N-[1-(4-cyanobenzyl)-3,5-dimethyl-1H-pyrazol-4-yl]-6,7-difluoro-2-(trifluoromethyl)quinoline-4-carboxamide], the IC50 stood at 50.5 nM.

Regarding `Cc1nn(C(C)c2ccccc2)c(C)c1NC(=O)c1cc(C(F)(F)F)nc2ccc(Br)cc12` (racemic) [Example 1360], the half-inhibitory concentration (IC50) stood at 21.6 nM.

For the molecule `Cc1nn(Cc2ccc(C#N)cc2)c(C)c1NC(=O)c1cc(C(N)=O)nc2ccc(Cl)cc12` [Example 261, 6-chloro-N^4-[1-(4-cyanobenzyl)-3,5-dimethyl-1H-pyrazol-4-yl]quinoline-2,4-dicarboxamide], the half-maximal inhibitory concentration (IC50) stood at 0.5 nM.

With `Cc1nn(Cc2ccc(C#N)cc2)c(C)c1NC(=O)c1cc(C(N)=O)nc2cc(Cl)ccc12` [Example 260, 7-chloro-N^4-[1-(4-cyanobenzyl)-3,5-dimethyl-1H-pyrazol-4-yl]quinoline-2,4-dicarboxamide], the half-inhibitory concentration (IC50) stood at 4.7 nM.

As for `Cc1c(NC(=O)c2cc(C(N)=O)nc3ccccc23)c(C(F)(F)F)nn1Cc1ccc(C(C)C)cc1` [Example 1407], the IC50 was found to be 28.7 nM.

Take `Cc1c(NC(=O)c2cc(C(N)=O)nc3ccccc23)c(C(F)(F)F)nn1CC(=O)Nc1ccccc1O` [Example 1671]: the IC50 is 149 nM.

As to `Cc1c(NC(=O)c2cc(C(N)=O)nc3cc(F)ccc23)c(C(F)(F)F)nn1Cc1ncccc1C#N` [Example 1392], the 50% inhibitory concentration (IC50) is 15.5 nM.

With `Cc1c(NC(=O)c2cc(C(N)=O)nc3ccccc23)c(C(F)(F)F)nn1Cc1ncco1` [Example 1540], the half-inhibitory concentration (IC50) is 275 nM.

Regarding `Cc1nn(Cc2ccc(C(=O)N3CCC3)cc2)c(C)c1NC(=O)c1cc(C(F)(F)F)nc2ccc(Br)cc12` [Example 1037], the IC50 turned out to be 5.3 nM.

On to `Cc1c(NC(=O)c2cc(C(N)=O)nc3cc(Cl)ccc23)c(C(F)(F)F)nn1Cc1ccc(C#N)cc1` [Example 246, 7-chloro-N^4-[1-(4-cyanobenzyl)-5-methyl-3-(trifluoromethyl)-1H-pyrazol-4-yl]quinoline-2,4-dicarboxamide], for which the concentration for half-maximal inhibition (IC50) amounted to 2.6 nM.

On to `Cc1c(NC(=O)c2cc(C(N)=O)nc3cc(F)c(Cl)cc23)c(C(F)(F)F)nn1Cc1nc(C(=O)O)co1` [Example 1686], for which the half-inhibitory concentration (IC50) was determined as 1290 nM.

On to `Cc1nn(Cc2ccc(C(=O)NCC#N)cc2)c(C)c1NC(=O)c1cc(C(F)(F)F)nc2ccc(Br)cc12` [Example 1022], for which the IC50 came to 2.4 nM.

As for `COCCCNC(=O)c1ccc(Cn2nc(C)c(NC(=O)c3cc(C(F)(F)F)nc4ccc(Br)cc34)c2C)cc1` [Example 1120], the 50% inhibitory concentration (IC50) was 65.5 nM.

Take `Cc1c(NC(=O)c2cc(C(F)(F)F)nc3c(Cl)cc(Cl)cc23)c(C(F)(F)F)nn1Cc1ccc(F)c(F)c1` [Example 199, 6,8-dichloro-N-[1-(3,4-difluorobenzyl)-5-methyl-3-(trifluoromethyl)-1H-pyrazol-4-yl]-2-(trifluoromethyl)quinoline-4-carboxamide]: the concentration for half-maximal inhibition (IC50) is 441 nM.

Turning to `Cc1nn(Cc2ccc(F)c(F)c2)c(C)c1NC(=O)c1cc(C(F)(F)F)nc2ccc(Br)cc12` [Example 47, 6-bromo-N-[1-(3,4-difluorobenzyl)-3,5-dimethyl-1H-pyrazol-4-yl]-2-(trifluoromethyl)quinoline-4-carboxamide], the half-inhibitory concentration (IC50) was determined as 44.4 nM.

Consider `COc1ccccc1Cn1nc(C)c(NC(=O)c2cc(C)nc3ccc(C)cc23)c1C` [Example 1232], for which the IC50 stood at 1050 nM.

As for `Cc1nn(Cc2ccc(F)cc2C#N)c(C)c1NC(=O)c1cc(C(N)=O)nc2cc(F)c(Cl)cc12` [Example 1663], the concentration for half-maximal inhibition (IC50) came out at 1.1 nM.

Turning to `Cc1cc(C(=O)Nc2c(C)nn(Cc3ccc(F)cc3)c2C)c2cccc(C)c2n1` [Example 86, N-[1-(4-fluorobenzyl)-3,5-dimethyl-1H-pyrazol-4-yl]-2,8-dimethylquinoline-4-carboxamide], the half-inhibitory concentration (IC50) was found to be 257 nM.

In the case of `Cc1c(NC(=O)c2cc(C(N)=O)nc3cccc(F)c23)c(C(F)(F)F)nn1Cc1c(F)cccc1F` [Example 1629], the IC50 worked out at 16.2 nM.

Consider `Cc1c(NC(=O)c2cc(C(N)=O)nc3cc(F)c(Cl)cc23)c(C(F)(F)F)nn1Cc1ccc(F)cc1C#N` [Example 1657], for which the IC50 was 3.4 nM.

For `CCc1nn(Cc2ccc(F)cc2)c(CC)c1NC(=O)c1cc(C(N)=O)nc2cc(F)c(Cl)cc12` [Example 1386], the IC50 turned out to be 13.6 nM.

Consider `Cc1c(NC(=O)c2cc(C(N)=O)nc3cc(F)ccc23)c(C(F)(F)F)nn1Cc1ccc(-c2nnn[nH]2)cc1` [Example 400, 7-fluoro-N^4-{5-methyl-1-[4-(1H-tetrazol-5-yl)benzyl]-3-(trifluoromethyl)-1H-pyrazol-4-yl}quinoline-2,4-dicarboxamide], for which the half-maximal inhibitory concentration (IC50) turned out to be 1260 nM.

Consider `Cc1c(NC(=O)c2cc(C(F)(F)F)nc3ccc(Br)cc23)c(C(F)(F)F)nn1Cc1ccc(C(=O)NCCN(C)C)cn1` [Example 1177], for which the IC50 is 221 nM.

Take `Cc1ccc2nc(C)cc(C(=O)Nc3c(C)nn(Cc4ccc(F)cc4)c3C)c2c1` [Example 62, N-[1-(4-fluorobenzyl)-3,5-dimethyl-1H-pyrazol-4-yl]-2,6-dimethylquinoline-4-carboxamide]: the IC50 is 127 nM.

Regarding `Cc1nn(Cc2ccc(C(=O)NC[C@@H](O)CO)cc2)c(C)c1NC(=O)c1cc(C(F)(F)F)nc2ccc(Br)cc12` [Example 1152], the half-maximal inhibitory concentration (IC50) amounted to 132 nM.

Consider `Cc1c(NC(=O)c2cc(C(N)=O)nc3cc(F)ccc23)c(C(F)(F)F)nn1Cc1ccc(C(N)=O)cc1` [Example 369, N^4-[1-(4-carbamoylbenzyl)-5-methyl-3-(trifluoromethyl)-1H-pyrazol-4-yl]-7-fluoroquinoline-2,4-dicarboxamide], for which the IC50 is 12.4 nM.

In the case of `Cc1cc(Cn2nc(C)c(NC(=O)c3cc(C(N)=O)nc4cc(F)c(Cl)cc34)c2C)on1` [Example 411, 6-chloro-N^4-{3,5-dimethyl-1-[(3-methyl-1,2-oxazol-5-yl)methyl]-1H-pyrazol-4-yl}-7-fluoroquinoline-2,4-dicarboxamide], the IC50 came out at 1.1 nM.

For the molecule `Cc1nn(Cc2ccc(C(=O)NCCO)cn2)c(C)c1NC(=O)c1cc(C(N)=O)nc2ccc(F)cc12` [Example 1246], the IC50 turned out to be 1660 nM.

As to `Cc1ccc2nc(C)cc(C(=O)Nc3c(C)nn(Cc4ccc(C(F)(F)F)cc4)c3C)c2c1` [Example 107, N-{3,5-dimethyl-1-[4-(trifluoromethyl)benzyl]-1H-pyrazol-4-yl}-2,6-dimethylquinoline-4-carboxamide], the half-maximal inhibitory concentration (IC50) was determined as 593 nM.

For `Cc1c(NC(=O)c2cc(C(N)=O)nc3ccccc23)c(C(F)(F)F)nn1Cc1cc(C#N)no1` [Example 1672], the IC50 turned out to be 151 nM.

As to `CNC(=O)c1nc(Cn2nc(C)c(NC(=O)c3cc(C(F)(F)F)nc4ccc(Br)cc34)c2C)no1` [Example 404, 6-bromo-N-(3,5-dimethyl-1-{[5-(methylcarbamoyl)-1,2,4-oxadiazol-3-yl]methyl}-1H-pyrazol-4-yl)-2-(trifluoromethyl)quinoline-4-carboxamide], the half-inhibitory concentration (IC50) was 1.4 nM.

In the case of `COc1cccc(Cn2nc(C)c(NC(=O)c3cc(C(F)(F)F)nc4ccc(Br)cc34)c2C)c1` [Example 97, 6-bromo-N-[1-(3-methoxybenzyl)-3,5-dimethyl-1H-pyrazol-4-yl]-2-(trifluoromethyl)quinoline-4-carboxamide], the IC50 came out at 354 nM.

For the molecule `CCc1cc(Cn2nc(C(F)(F)F)c(NC(=O)c3cc(C(N)=O)nc4cc(F)c(Cl)cc34)c2C)on1` [Example 410, 6-chloro-N^4-{1-[(3-ethyl-1,2-oxazol-5-yl)methyl]-5-methyl-3-(trifluoromethyl)-1H-pyrazol-4-yl}-7-fluoroquinoline-2,4-dicarboxamide], the 50% inhibitory concentration (IC50) turned out to be 8.9 nM.

For `CCc1cc(Cn2nc(C(F)(F)F)c(NC(=O)c3cc(C(N)=O)nc4ccccc34)c2C)on1` [Example 1555], the half-maximal inhibitory concentration (IC50) was 18.4 nM.

With `Cc1nn(C[C@@H]2CCC(=O)N2)c(C)c1NC(=O)c1cc(C(F)(F)F)nc2ccc(Br)cc12` [Example 1266], the 50% inhibitory concentration (IC50) turned out to be 2490 nM.

For the molecule `Cc1ccc2nc(C)cc(C(=O)Nc3c(C)nn(Cc4ccc(C(C)(C)C)cc4)c3C)c2c1` [Example 1290], the concentration for half-maximal inhibition (IC50) worked out at 7110 nM.

In the case of `Cc1nn(Cc2ccc(O)cc2)c(C)c1NC(=O)c1cc(C(F)(F)F)nc2c(Cl)cc(Cl)cc12` [Example 1048], the IC50 came to 11.5 nM.

Turning to `Cc1cc(Cn2nc(C)c(NC(=O)c3cc(C(N)=O)nc4cc(F)ccc34)c2C)ccc1C#N` [Example 1698], the half-maximal inhibitory concentration (IC50) came to 1.2 nM.

Take `Cc1c(NC(=O)c2cc(C(N)=O)nc3ccc(S(C)(=O)=O)cc23)c(C(F)(F)F)nn1Cc1ccc(C#N)cc1` [Example 1389]: the IC50 came to 1930 nM.

Regarding `Cc1nn(Cc2ccncc2C#N)c(C)c1NC(=O)c1cc(C(F)(F)F)nc2ccc(Br)cc12` [Example 1074], the half-inhibitory concentration (IC50) was found to be 22.3 nM.

As for `Cc1nn(CCOc2ccc(C#N)cc2)c(C)c1NC(=O)c1cc(C(F)(F)F)nc2ccc(Br)cc12` [Example 1344], the IC50 stood at 323 nM.
